Literature values in patent US20210353673A1, “CD11B + PIEZO-1 + MACROPHAGES AND USES THEREOF” (ALBERT-LUDWIGS-UNIVERSITÄT FREIBURG, priority 2018, published 2021).

System: endothelial cells
Conditions: after 1 week, normal angiogenesis induced by VEGF

## vascular endothelial growth factor [VEGF]
  ECs in Go phase: 93%
